# Measured values reported in patent publication US20140031283A1, “ANTICANCER FUSION PROTEIN” (ADAMED SP. Z O.O., priority 2011, published 2014).
# Experiments:
# [1] = test system: human lung cancer NCI-H460; assay: NCI-H460 lung cancer xenograft in Crl:SHO-PrkdcscidHrhr mice; type: in vivo; details: 30 mg/kg i.v. six times every second day, 28th day
# Description: (§1) Antitumor activity of protein preparations was tested in a mouse model of human colon cancer HCT116, human colon cancer Colo205, human colon cancer model SW620, human liver cancer model HepG2, and human lung cancer models NCI-H460 and NCI-H460-Luc2.
# The HCT116 (in mice Crl:CD1-Foxn1^nu 1), Colo205, NCI-H460, NCI-H460-Luc2 cells were maintained in RPMI 1640 medium (Hyclone, Logan, Utah, USA) mixed in the ratio of 1:1 with Opti-MEM (Invitrogen, Cat.22600-134) supplemented with 10% fetal calf serum and 2 mM glutamine. On the day of mice grafting, the cells were detached from the support by washing the cells with trypsin (Invitrogen), then the cells were centrifuged at 1300 rpm, 4° C., 8 min., suspended in HBSS buffer (Hanks medium), counted and diluted to the concentration of 25×10^6 cells/ml.
# Examination of antitumor activity of proteins of the invention was conducted on 7-9 week-old CD-nude (Crl:CD1-Foxn1^nu 1) or 4-6 week-old Crl:SHO-Prkdc^scidHr^hr mice obtained from Charles River Germany. Mice were kept under specific pathogen-free conditions with free access to food and demineralised water (ad libitum). All experiments on animals were carried in accordance with the guidelines: “Interdisciplinary Principles and Guidelines for the Use of Animals in Research. […]
# [2] = test system: human colon cancer model SW620; assay: SW620 colon cancer xenograft in Crl:SHO-Prkdc^scidHr^hr mice; type: in vivo; details: 30 mg/kg i.v. six times every second day, 31st day
# Description: as §1
# The HCT116 (in mice Crl:SHO-Prkdc^scidHr^hr) were alternatively maintained in McCoy's medium (Hyclone, Logan, Utah, USA) supplemented with 10% fetal calf serum and 2 mM glutamine. On the day of mice grafting, the cells were detached from the support by washing the cells with trypsin (Invitrogen), then the cells were centrifuged at 1300 rpm, 4° C., 8 min., suspended in HBSS buffer (Hanks medium), counted and diluted to the concentration of 25×10^6 cells/ml. SW620 cells were maintained in DMEM (HyClone, Logan, Utah, USA) supplemented with 10% fetal calf serum and 2 mM glutamine. On the day of mice grafting, the cells were detached from the support by washing the cells with trypsin (Invitrogen), then the cells were centrifuged at 1300 rpm, 4° C., 8 min., suspended in HBSS buffer (Hanks medium), counted and diluted to the concentration of 25×10^6 cells/ml.
# Examination of antitumor activity of proteins of the invention was conducted on 7-9 week-old CD-nude (Crl:CD1-Foxn1^nu 1) or 4-6 week-old Crl:SHO-Prkdc^scidHr^hr mice obtained from Charles River Germany. […]
substance,measurement,setting,value
"rhTRAIL114-281: recombinant human soluble TRAIL, amino acids 114-281 of hTRAIL, used as the comparative reference",tumor growth inhibition (TGI) relative to the control,[1],17.5%
same,tumor growth inhibition (TGI) relative to the control,[2],−9%
